The IC50 is the point on the concentration scale where inhibition reaches its midpoint. As usually defined, the viability, T/C is the result in the treated group divided by that in the control group, in per cent.

The assay concerns KRAS patient-derived spheroids with HUVEC/MSC, viability. Kind of assay: Anticancer human tumor 941728-121-R-J1-PDC patient-derived lung adenocarcinoma cell line growth inhibition [KRAS2]. The note with it: for viability, T/C: stronger effect = lower value. From the text: Multicellular complex tumor spheroid response to RAS pathway inhibitors in combination with a targeted agents in patient-derived cell lines with oncogenic KRAS variants from multiple cancer types
A high-throughput screen of multi-cell type tumor spheroids was designed to identify active combinations of targeted small molecules and KRAS pathway inhibitors. Complex spheroids include a stromal component modeled by human endothelial cells (HUVEC) and fibroblasts modeled by human mesenchymal stem cells (MSCs). The concentration ranges selected for each drug and investigational agent were based upon clinically achievable concentrations if the clinical Cmax of the agent was known.
Compounds. The drugs and investigational agents: BI-3406 (NSC825286), BAY-293 (NSC824723), batoprotafib (TNO155; NSC825523), sotorasib (AMG 510; NSC818433), MRTX1257 (NSC819558), elimusertib (BAY 1895344; NSC800525), molibresib (GSK525762; NSC774829), temuterkib (LY3214996; NSC803410), venetoclax (NSC766270), alisertib (NSC759677), olaparib (NSC753686), talazoparib (NSC767125), erdafitinib (NSC781556), ipatasertib (NSC767898), cabozantinib (NSC761068), nintedanib (NSC756659), abemaciclib (NSC768073), docetaxel (NSC628503), trametinib (NSC758246), and sapanisertib (NSC764658) were obtained from the National Cancer Institute (NCI) Developmental Therapeutics Program Chemical Repository. The FDA-approved anticancer drug set is available from the Developmental Therapeutics Program. […] The stock solutions were prepared in dimethyl sulfoxide (DMSO, Sigma-Aldrich, St. Louis, MO, cat. D2650) at 800-fold the tested concentration and stored at -70 degrees C prior to their use. All drugs and investigational agents were tested over a range starting from a high concentration at or near the clinical Cmax and decreasing in half-log increments. If the clinical Cmax for an agent had not been determined, the highest concentration tested was 10 microM.
Cell Culture. All cells were maintained in an incubator at 37 degrees C and 5% CO2 with 95% humidity. The PDC lines were cultured according to standard operating procedures established by the NCI PDMR (https://pdmr.cancer.gov/sops/default.htm). Briefly, all PDCs were thawed and cultured in Matrigel-coated flasks prepared with a working solution of 1X Ham's F-12 nutrient mix, without supplementation (Invitrogen, Waltham, MA, cat. 11765054), 100 U/mL penicillin-streptomycin (Invitrogen, cat. 15140122), and 2.5% Matrigel (Corning Inc., Corning, NY, cat. 354248) for the first three passages. All PDCs were cultured in complete DMEM/F-12 media containing advanced DMEM/F-12 (Invitrogen, cat. 12634028), 4.9% defined fetal bovine serum, heat inactivated (HyClone Laboratories Inc., Logan, UT, cat. SH30070.03HI), 389 ng/mL hydrocortisone (Sigma-Aldrich, cat. H4001), 9.7 ng/mL human EGF recombinant protein (Invitrogen, cat. PHG0313), 23.4 microg/mL adenine (Sigma-Aldrich, cat. A2786), 97.3 U/mL penicillin-streptomycin (Invitrogen, cat. 15140122), 1.9 mM L-glutamine (Invitrogen, cat. 25030081), and 9.7 microM Y-27632 dihydrochloride (Tocris Bioscience, Bristol, United Kingdom, cat. 1254). The PDCs were cultured in complete DMEM/F12 media without 9.7 microM Y-27632 dihydrochloride for at least two passages prior to the screen. The established cell line HOP-62 was cultured in RPMI 1640 medium, HEPES (Invitrogen, cat. 22400105) with 10% defined fetal bovine serum (HyClone Laboratories Inc., cat. SH30070.03) and 2 mM L-glutamine (Invitrogen, cat. 25030081). The pooled donor HUVEC were cultured in endothelial cell growth medium 2 (PromoCell, Heidelberg, Germany, cat. C-22011) and the hMSC were cultured in mesenchymal stem cell growth medium 2 (PromoCell, cat. C-28009). For all experiments, HUVEC and hMSC were used at passages </=5, while the malignant cell lines were used at passages </=15. […]

Setting [1] is: curve of first compound, second compound 0.1 µM.
The mark [2] stands for this setting: curve of first compound, second compound 0.316 µM.
Setting [3] is: curve of first compound, second compound 1 µM.
[4] abbreviates: curve of first compound, second compound 3.16 µM.
The mark [5] stands for this setting: curve of first compound, second compound 10 µM.
Setting [6] is: second compound 0.1 µM, first compound 0.0316 µM.
Setting [7] is: second compound 0.1 µM, first compound 0.1 µM.
The mark [8] stands for this setting: second compound 0.1 µM, first compound 0.316 µM.
The mark [9] stands for this setting: second compound 0.1 µM, first compound 1 µM.
The mark [10] stands for this setting: second compound 0.1 µM, first compound 3.16 µM.
[11] abbreviates: second compound 0.1 µM, first compound 10 µM.
Where [12] appears, read: second compound 0.316 µM, first compound 0.0316 µM.
Setting [13] is: second compound 0.316 µM, first compound 0.1 µM.
Setting [14] is: second compound 0.316 µM, first compound 0.316 µM.
Setting [15] is: second compound 0.316 µM, first compound 1 µM.
The mark [16] stands for this setting: second compound 0.316 µM, first compound 3.16 µM.
Setting [17] is: second compound 0.316 µM, first compound 10 µM.
[18] abbreviates: second compound 1 µM, first compound 0.0316 µM.
Where [19] appears, read: second compound 1 µM, first compound 0.1 µM.
[20] abbreviates: second compound 1 µM, first compound 0.316 µM.
The mark [21] stands for this setting: second compound 1 µM, first compound 1 µM.
The mark [22] stands for this setting: second compound 1 µM, first compound 3.16 µM.
The mark [23] stands for this setting: second compound 1 µM, first compound 10 µM.
Setting [24] is: second compound 3.16 µM, first compound 0.0316 µM.
The mark [25] stands for this setting: second compound 3.16 µM, first compound 0.1 µM.
Where [26] appears, read: second compound 3.16 µM, first compound 0.316 µM.
Where [27] appears, read: second compound 3.16 µM, first compound 1 µM.
[28] abbreviates: second compound 3.16 µM, first compound 3.16 µM.
Setting [29] is: second compound 3.16 µM, first compound 10 µM.
Where [30] appears, read: second compound 10 µM, first compound 0.0316 µM.
Where [31] appears, read: second compound 10 µM, first compound 0.1 µM.
Where [32] appears, read: second compound 10 µM, first compound 0.316 µM.
The mark [33] stands for this setting: second compound 10 µM, first compound 1 µM.
Setting [34] is: second compound 10 µM, first compound 3.16 µM.
The mark [35] stands for this setting: second compound 10 µM, first compound 10 µM.

A value given as a limit tells only on which side of the number the result lay.
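Also: spheroids exposed to agents for seven days before readout.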

As for `CC1(C)CCC(CN2CCN(c3ccc(C(=O)NS(=O)(=O)c4ccc(NCC5CCOCC5)c([N+](=O)[O-])c4)c(Oc4cnc5[nH]ccc5c4)c3)CC2)=C(c2ccc(Cl)cc2)C1` + COc1cc2nc(C)nc(NC(C)c3cc(N)cc(C(F)(F)F)c3)c2cc1OC1CCOC1, the IC50 is below 31.6 nM under setting [1]; below 31.6 nM under setting [2]; below 31.6 nM under setting [3]; below 31.6 nM under setting [4]; below 31.6 nM under setting [5]. Besides, the viability, T/C under setting [6] is 38.8%; the viability, T/C under setting [7] is 40.6%; the viability, T/C under setting [8] was 36.4%; the viability, T/C under setting [9] is 33.9%; the viability, T/C under setting [10] was 6.79%; the viability, T/C under setting [11] was 4.58%. Also, the viability, T/C is 36.7% under setting [12]; 33% under setting [13]; 38.5% under setting [14]; 31.8% under setting [15]; 7.02% under setting [16]; 3.43% under setting [17]. Moreover, the viability, T/C runs as follows: under setting [18], 35.2%; under setting [19], 46.4%; under setting [20], 34.4%; under setting [21], 32.2%; under setting [22], 7.71%; under setting [23], 1.61%. Further, the viability, T/C is 39.2% under setting [24]; 34% under setting [25]; 32.2% under setting [26]; 29.6% under setting [27]; 5.76% under setting [28]; 3.49% under setting [29]. The viability, T/C under setting [30] was 19.6%; the viability, T/C under setting [31] was 19.7%; the viability, T/C under setting [32] was 17.5%; the viability, T/C under setting [33] is 7.37%; the viability, T/C under setting [34] was 1.44%; the viability, T/C under setting [35] is 0.52%.

Take `CC1OCC2(CCN(c3cnc(Sc4ccnc(N)c4Cl)c(N)n3)CC2)C1N` (stereo not given) + COc1cc2nc(C)nc(NC(C)c3cc(N)cc(C(F)(F)F)c3)c2cc1OC1CCOC1: the IC50 reads like this: under setting [1], below 31.6 nM; under setting [2], below 31.6 nM; under setting [3], below 31.6 nM; under setting [4], below 31.6 nM; under setting [5], below 31.6 nM. Besides, the viability, T/C is 49.4% under setting [6]; 43.1% under setting [7]; 38.4% under setting [8]; 36.1% under setting [9]; 39% under setting [10]; 34.5% under setting [11]. For the same compound, the viability, T/C reads like this: under setting [12], 47.2%; under setting [13], 41.4%; under setting [14], 34.1%; under setting [15], 35.7%; under setting [16], 37%; under setting [17], 39.7%. Also, the viability, T/C by setting is: under setting [18], 48%; under setting [19], 43.8%; under setting [20], 35%; under setting [21], 36.2%; under setting [22], 32.3%; under setting [23], 29.9%. The viability, T/C runs as follows: under setting [24], 43.6%; under setting [25], 39%; under setting [26], 35.3%; under setting [27], 33.4%; under setting [28], 29.5%; under setting [29], 26.6%. The viability, T/C was 30% under setting [30]; 21.2% under setting [31]; 13.1% under setting [32]; 13.3% under setting [33]; 11.6% under setting [34]; 5.88% under setting [35].

On to `Cn1nccc1Nc1nccc(-c2cc3c(s2)C(C)(C)N(CCN2CCOCC2)C3=O)n1`, for which the viability, T/C runs as follows: (compound 0.0316 µM) 90.5% [middle of 5 runs]; (compound 0.316 µM) 57.3% [middle of 5 runs]; (compound 1 µM) 48.8% [middle of 5 runs]; (compound 3.16 µM) 50.1% [middle of 5 runs]; (compound 10 µM) 51.3% [middle of 5 runs].

Regarding `COC(=O)c1ccc2c(C(=Nc3ccc(N(C)C(=O)CN4CCN(C)CC4)cc3)c3ccccc3)c(O)[nH]c2c1`, the viability, T/C is 77.9% [middle of 5 runs] (compound 0.1 µM), 68.6% [middle of 5 runs] (compound 1 µM), 69% [middle of 5 runs] (compound 3.16 µM) and 64% [middle of 5 runs] (compound 10 µM). Moreover, the IC50 (curve of compound) is above 10000 nM.

For `COC(=O)c1ccc2c(C(=Nc3ccc(N(C)C(=O)CN4CCN(C)CC4)cc3)c3ccccc3)c(O)[nH]c2c1` + COc1cc2nc(C)nc(NC(C)c3cc(N)cc(C(F)(F)F)c3)c2cc1OC1CCOC1, the IC50 reads like this: under setting [1], 10000 nM; under setting [2], below 31.6 nM; under setting [3], below 31.6 nM; under setting [4], below 31.6 nM; under setting [5], below 31.6 nM. For the same compound, the viability, T/C is, setting by setting: under setting [6], 108%; under setting [7], 45.3%; under setting [8], 46.4%; under setting [9], 70.2%; under setting [10], 46.2%; under setting [11], 48.5%. Besides, the viability, T/C is, setting by setting: under setting [12], 45.5%; under setting [13], 43.4%; under setting [14], 40.5%; under setting [15], 49.7%; under setting [16], 42.7%; under setting [17], 42.9%. The viability, T/C under setting [18] is 42.4%; the viability, T/C under setting [19] was 40.9%; the viability, T/C under setting [20] was 37%; the viability, T/C under setting [21] was 41.6%; the viability, T/C under setting [22] is 35.1%; the viability, T/C under setting [23] is 42.2%. The viability, T/C by setting is: under setting [24], 43.5%; under setting [25], 36.7%; under setting [26], 41.7%; under setting [27], 42.6%; under setting [28], 22.6%; under setting [29], 0.49%. The viability, T/C under setting [30] is 26.2%; the viability, T/C under setting [31] is 21.7%; the viability, T/C under setting [32] is 21.1%; the viability, T/C under setting [33] was 16.9%; the viability, T/C under setting [34] is 0.62%; the viability, T/C under setting [35] was 1.04%.

For the origin of these results see PubChem BioAssay AID1963862 (Molecular Pharmacology Branch, DTP, NCI, 2024).
